# Source: article PMC5218480 (PLoS ONE, 2017)
# System: MV-4-11 cells
# Test: Gene expression microarray analysis (Affymetrix PrimeView) and GSEA
# Format: cell-based, human
# Parameters: RFU PODN (11730768_x_at) / Fold change /veh PODN (11730768_x_at) / RFU LINC00158 (11744669_a_at) / Fold change /veh LINC00158 (11744669_a_at) / RFU DUSP10 (11751237_a_at) / Fold change /veh DUSP10 (11751237_a_at) / RFU ID3 (11757404_x_at) / Fold change /veh ID3 (11757404_x_at) / RFU PLEKHG5 (11737974_s_at) / Fold change /veh PLEKHG5 (11737974_s_at) / RFU LRRC4B (11730491_at) / Fold change /veh LRRC4B (11730491_at) / RFU GIMAP4 (11747438_a_at) / Fold change /veh GIMAP4 (11747438_a_at) / RFU KRT8 (11758183_x_at) / Fold change /veh KRT8 (11758183_x_at) / RFU CNN1 (11734310_a_at) / Fold change /veh CNN1 (11734310_a_at) / RFU VPS37D (11726825_at) / Fold change /veh VPS37D (11726825_at) / RFU C10orf10 (11716522_x_at) / Fold change /veh C10orf10 (11716522_x_at) / RFU KIR2DL2 /// KIR2DL4 /// KIR2DL5A /// KIR2DL5B /// KIR2DS1 /// KIR2DS2 /// KIR2DS3 /// KIR2DS4 /// KIR3DL3 /// KIR3DL3 /// KIR3DS1 (11738374_at) / Fold change /veh KIR2DL2 /// KIR2DL4 /// KIR2DL5A /// KIR2DL5B /// KIR2DS1 /// KIR2DS2 /// KIR2DS3 /// KIR2DS4 /// KIR3DL3 /// KIR3DL3 /// KIR3DS1 (11738374_at) / RFU C1QL1 (11718748_at) / Fold change /veh C1QL1 (11718748_at) / RFU TMPRSS4 (11747572_a_at) / Fold change /veh TMPRSS4 (11747572_a_at) / RFU HAMP (11756126_x_at) / Fold change /veh HAMP (11756126_x_at) / RFU RNFT2 (11725882_a_at) / Fold change /veh RNFT2 (11725882_a_at) / RFU NR4A2 (11747474_a_at) / Fold change /veh NR4A2 (11747474_a_at) / RFU ABCC12 (11746883_a_at) / Fold change /veh ABCC12 (11746883_a_at) / RFU TMEM136 (11760407_x_at) / Fold change /veh TMEM136 (11760407_x_at) / RFU CLDN22 /// WWC2 (11732394_at) / Fold change /veh CLDN22 /// WWC2 (11732394_at) / RFU HLA-DPB1 (11760878_x_at) / Fold change /veh HLA-DPB1 (11760878_x_at) / RFU SPINT1 (11716480_a_at) / Fold change /veh SPINT1 (11716480_a_at) / RFU GAP43 (11754022_s_at) / Fold change /veh GAP43 (11754022_s_at) / RFU A4GNT (11735810_at) / Fold change /veh A4GNT (11735810_at) / RFU PRB3 (11715151_x_at) / Fold change /veh PRB3 (11715151_x_at) / RFU TUBB4B (11761932_at) / Fold change /veh TUBB4B (11761932_at) / RFU CAPN14 (11732068_a_at) / Fold change /veh CAPN14 (11732068_a_at) / RFU TMCC2 (11721928_a_at) / Fold change /veh TMCC2 (11721928_a_at) / RFU IRGQ (11745062_a_at) / Fold change /veh IRGQ (11745062_a_at) / RFU FAM174B (11720279_a_at) / Fold change /veh FAM174B (11720279_a_at) / RFU TMPRSS4 (11748680_a_at) / Fold change /veh TMPRSS4 (11748680_a_at) / RFU FAM212B (11763350_a_at) / Fold change /veh FAM212B (11763350_a_at) / RFU PLEKHG5 (11743358_a_at) / Fold change /veh PLEKHG5 (11743358_a_at) / RFU ZSCAN30 (11745921_a_at) / Fold change /veh ZSCAN30 (11745921_a_at) / RFU CMKLR1 (11741424_a_at) / Fold change /veh CMKLR1 (11741424_a_at) / RFU LOC101060620 /// MAPK8IP1 (11723275_at) / Fold change /veh LOC101060620 /// MAPK8IP1 (11723275_at) / RFU SPTSSB (11747773_x_at) / Fold change /veh SPTSSB (11747773_x_at) / RFU PRSS12 (11739890_at) / Fold change /veh PRSS12 (11739890_at) / RFU BIN1 (11741810_x_at) / Fold change /veh BIN1 (11741810_x_at) / RFU WNT11 (11732464_a_at) / Fold change /veh WNT11 (11732464_a_at) / RFU C10orf10 (11716521_a_at) / Fold change /veh C10orf10 (11716521_a_at) / RFU C5orf56 (11738089_at) / Fold change /veh C5orf56 (11738089_at) / RFU CYB561 (11721691_x_at) / Fold change /veh CYB561 (11721691_x_at) / RFU ANKRD19P (11752326_a_at) / Fold change /veh ANKRD19P (11752326_a_at) / RFU OR2T12 /// OR2T33 /// OR2T8 (11738714_s_at) / Fold change /veh OR2T12 /// OR2T33 /// OR2T8 (11738714_s_at) / RFU VCAN (11748164_a_at) / Fold change /veh VCAN (11748164_a_at) / RFU JSRP1 (11732532_at) / Fold change /veh JSRP1 (11732532_at) / RFU KRTAP10-11 (11738290_x_at) / Fold change /veh KRTAP10-11 (11738290_x_at) / RFU MYO3A (11730013_a_at) / Fold change /veh MYO3A (11730013_a_at) / RFU EBF3 (11725865_a_at) / Fold change /veh EBF3 (11725865_a_at) / RFU CAMK2N1 (11719241_x_at) / Fold change /veh CAMK2N1 (11719241_x_at) / RFU C5orf56 (11738088_a_at) / Fold change /veh C5orf56 (11738088_a_at) / RFU OLFML3 (11715873_a_at) / Fold change /veh OLFML3 (11715873_a_at) / RFU LOC100653217 /// NTM (11731650_a_at) / Fold change /veh LOC100653217 /// NTM (11731650_a_at) / RFU MAPK11 (11762145_a_at) / Fold change /veh MAPK11 (11762145_a_at) / RFU FIZ1 (11724087_x_at) / Fold change /veh FIZ1 (11724087_x_at) / RFU OASL (11726364_x_at) / Fold change /veh OASL (11726364_x_at) / RFU SOX15 (11748057_x_at) / Fold change /veh SOX15 (11748057_x_at) / RFU CD79A (11719716_a_at) / Fold change /veh CD79A (11719716_a_at) / RFU HIST1H1D (11736915_at) / Fold change /veh HIST1H1D (11736915_at) / RFU CASKIN2 (11723855_a_at) / Fold change /veh CASKIN2 (11723855_a_at) / RFU LOC730098 (11760151_x_at) / Fold change /veh LOC730098 (11760151_x_at) / RFU OR4N2 (11742367_at) / Fold change /veh OR4N2 (11742367_at) / RFU PRRT2 (11749266_a_at) / Fold change /veh PRRT2 (11749266_a_at) / RFU SNX32 (11753110_a_at) / Fold change /veh SNX32 (11753110_a_at) / RFU CDHR5 (11726645_a_at) / Fold change /veh CDHR5 (11726645_a_at) / RFU RCAN1 (11760418_a_at) / Fold change /veh RCAN1 (11760418_a_at) / RFU FAM167A (11723789_a_at) / Fold change /veh FAM167A (11723789_a_at) / RFU FAM26E (11764081_at) / Fold change /veh FAM26E (11764081_at) / RFU ISYNA1 (11749810_s_at) / Fold change /veh ISYNA1 (11749810_s_at) / RFU ACY1 (11761880_at) / Fold change /veh ACY1 (11761880_at) / RFU 11764098_at / Fold change /veh 11764098_at / RFU SAMD14 (11745864_x_at) / Fold change /veh SAMD14 (11745864_x_at) / RFU NPB (11741838_a_at) / Fold change /veh NPB (11741838_a_at) / RFU TMPRSS6 (11731388_a_at) / Fold change /veh TMPRSS6 (11731388_a_at) / RFU KRTAP10-2 (11738614_at) / Fold change /veh KRTAP10-2 (11738614_at) / RFU ARHGAP8 /// PRR5-ARHGAP8 (11727945_x_at) / Fold change /veh ARHGAP8 /// PRR5-ARHGAP8 (11727945_x_at) / RFU KRTAP5-7 /// NADSYN1 (11734609_at) / Fold change /veh KRTAP5-7 /// NADSYN1 (11734609_at) / RFU RASL12 (11751679_a_at) / Fold change /veh RASL12 (11751679_a_at) / RFU CDKN2B (11736163_a_at) / Fold change /veh CDKN2B (11736163_a_at) / RFU PRF1 (11729649_at) / Fold change /veh PRF1 (11729649_at) / RFU, ZNF638 /// ZNF638-IT1 / Fold change vs veh, ZNF638 /// ZNF638-IT1 / RFU, PANK3 / Fold change vs veh, PANK3 / RFU, SH3YL1 / Fold change vs veh, SH3YL1 / RFU, ZEB2 / Fold change vs veh, ZEB2 / RFU, NRIP1 / Fold change vs veh, NRIP1 / RFU, PTTG1IP / Fold change vs veh, PTTG1IP / RFU, CAPN2 / Fold change vs veh, CAPN2 / RFU, MED14 / Fold change vs veh, MED14 / RFU, SNORA58 / Fold change vs veh, SNORA58 / RFU, C1orf63 / Fold change vs veh, C1orf63 / RFU, LRRFIP1 / Fold change vs veh, LRRFIP1 / RFU, NDUFAF7 / Fold change vs veh, NDUFAF7 / RFU, SLC12A2 / Fold change vs veh, SLC12A2 / RFU, IBTK / Fold change vs veh, IBTK / RFU, ESF1 / Fold change vs veh, ESF1 / Fold change vs veh, TMEM50B / RFU, TAOK1 / Fold change vs veh, TAOK1 / RFU, ACBD3 / Fold change vs veh, ACBD3 / RFU, TMA16 / Fold change vs veh, TMA16 / RFU, RWDD3 / Fold change vs veh, RWDD3 / RFU, BCAT1 / Fold change vs veh, BCAT1 / RFU, EDEM3 / Fold change vs veh, EDEM3 / RFU, TMEM33 / Fold change vs veh, TMEM33 / RFU, WDR75 / Fold change vs veh, WDR75 / RFU, AHCTF1 / Fold change vs veh, AHCTF1 / RFU, TFRC / Fold change vs veh, TFRC / RFU, ZDHHC17 / Fold change vs veh, ZDHHC17 / RFU, NOM1 / Fold change vs veh, NOM1 / RFU, ARL8B / Fold change vs veh, ARL8B / RFU, ZBTB11 / Fold change vs veh, ZBTB11 / RFU, TAMM41 / Fold change vs veh, TAMM41 / RFU, KIAA1704 /// LOC100996395 / Fold change vs veh, KIAA1704 /// LOC100996395 / RFU, ING1 / Fold change vs veh, ING1 / RFU, TRMT61B / Fold change vs veh, TRMT61B / RFU, FUBP3 / Fold change vs veh, FUBP3 / RFU, TP53 / Fold change vs veh, TP53 / RFU, TNKS2 / Fold change vs veh, TNKS2 / RFU, ZFP14 / Fold change vs veh, ZFP14 / RFU, ACTR2 / Fold change vs veh, ACTR2 / RFU, PPP3R1 / Fold change vs veh, PPP3R1 / RFU, PIK3R1 / Fold change vs veh, PIK3R1 / RFU, HNRNPA1 / Fold change vs veh, HNRNPA1 / RFU, RNF170 / Fold change vs veh, RNF170 / RFU, ZNF28 / Fold change vs veh, ZNF28 / RFU, RNGTT / Fold change vs veh, RNGTT / RFU, OGT / Fold change vs veh, OGT / RFU, BRD1 / Fold change vs veh, BRD1 / RFU, MARS / Fold change vs veh, MARS / RFU, ZNF655 / Fold change vs veh, ZNF655 / RFU, FAHD1 / Fold change vs veh, FAHD1 / RFU, BDP1 / Fold change vs veh, BDP1 / RFU, LRRCC1 / Fold change vs veh, LRRCC1 / RFU, ARID1A / Fold change vs veh, ARID1A / RFU, ZNF146 / Fold change vs veh, ZNF146 / RFU, ZNF330 / Fold change vs veh, ZNF330 / RFU, GPN3 / Fold change vs veh, GPN3 / RFU, C9orf123 / Fold change vs veh, C9orf123 / RFU, N4BP2L2 / Fold change vs veh, N4BP2L2 / RFU, ARFIP1 / Fold change vs veh, ARFIP1 / RFU, FAM179B / Fold change vs veh, FAM179B / RFU, BCL10 / Fold change vs veh, BCL10 / RFU, UHRF1BP1L / Fold change vs veh, UHRF1BP1L / RFU, BET1 / Fold change vs veh, BET1 / RFU, CNOT2 / Fold change vs veh, CNOT2 / RFU, ZNF268 / Fold change vs veh, ZNF268 / Fold change vs veh, ZNF507 / RFU, DGCR2 / Fold change vs veh, DGCR2 / RFU, WDSUB1 / Fold change vs veh, WDSUB1 / Fold change vs veh, HSP90B1 /// MIR3652 / RFU, ADSS / Fold change vs veh, ADSS / RFU, GK / Fold change vs veh, GK / RFU, ZNF148 / Fold change vs veh, ZNF148 / RFU, TAF9 / Fold change vs veh, TAF9 / RFU, SLC1A5 / Fold change vs veh, SLC1A5 / RFU, SLMO2 / Fold change vs veh, SLMO2 / RFU, ABCC4 / Fold change vs veh, ABCC4 / RFU, LOC101060439 /// RAP1B / Fold change vs veh, LOC101060439 /// RAP1B / RFU, RFX7 / Fold change vs veh, RFX7 / RFU, GTPBP10 / Fold change vs veh, GTPBP10 / RFU, CNEP1R1 / Fold change vs veh, CNEP1R1 / RFU, BIVM-ERCC5 /// ERCC5 / Fold change vs veh, BIVM-ERCC5 /// ERCC5 / RFU, ILF3 / Fold change vs veh, ILF3 / RFU 11762660_at / Fold change /veh 11762660_at / RFU VCAN (11757783_s_at) / Fold change /veh VCAN (11757783_s_at) / RFU DDX43 (11728927_at) / Fold change /veh DDX43 (11728927_at) / RFU KRT8 (11758188_x_at) / Fold change /veh KRT8 (11758188_x_at) / RFU NKD1 (11759106_at) / Fold change /veh NKD1 (11759106_at) / RFU SRD5A1 (11742802_a_at) / Fold change /veh SRD5A1 (11742802_a_at) / RFU TPSAB1 /// TPSB2 (11721975_s_at) / Fold change /veh TPSAB1 /// TPSB2 (11721975_s_at) / RFU GSTM3 (11746129_a_at) / Fold change /veh GSTM3 (11746129_a_at) / RFU IL23R (11737362_x_at) / Fold change /veh IL23R (11737362_x_at) / RFU TMEM51 (11727254_a_at) / Fold change /veh TMEM51 (11727254_a_at) / RFU PIWIL2 (11732686_x_at) / Fold change /veh PIWIL2 (11732686_x_at) / RFU ORM1 (11744905_x_at) / Fold change /veh ORM1 (11744905_x_at) / RFU CCDC152 (11743942_at) / Fold change /veh CCDC152 (11743942_at) / RFU ECM1 (11717891_a_at) / Fold change /veh ECM1 (11717891_a_at) / RFU IL23R (11748794_a_at) / Fold change /veh IL23R (11748794_a_at) / RFU TNFAIP8L3 (11732012_x_at) / Fold change /veh TNFAIP8L3 (11732012_x_at) / RFU MBOAT4 (11741988_at) / Fold change /veh MBOAT4 (11741988_at) / RFU 11764193_at / Fold change /veh 11764193_at / RFU TMEM53 (11763286_at) / Fold change /veh TMEM53 (11763286_at) / RFU MAGEB2 (11727129_at) / Fold change /veh MAGEB2 (11727129_at) / RFU TMEM200A (11744735_a_at) / Fold change /veh TMEM200A (11744735_a_at) / RFU CCDC152 (11751479_a_at) / Fold change /veh CCDC152 (11751479_a_at) / RFU FAM211A (11726209_a_at) / Fold change /veh FAM211A (11726209_a_at) / RFU RGS16 (11746705_a_at) / Fold change /veh RGS16 (11746705_a_at) / RFU VCAN (11755009_s_at) / Fold change /veh VCAN (11755009_s_at) / RFU RHOB (11743442_s_at) / Fold change /veh RHOB (11743442_s_at) / RFU RGS16 (11720943_a_at) / Fold change /veh RGS16 (11720943_a_at) / RFU RGS16 (11720944_at) / Fold change /veh RGS16 (11720944_at) / RFU, VPS4B / Fold change vs veh, VPS4B / RFU, CREB1 / Fold change vs veh, CREB1 / RFU, DNAJC13 / Fold change vs veh, DNAJC13 / RFU, GNAQ / Fold change vs veh, GNAQ / RFU, CDK5R1 / Fold change vs veh, CDK5R1 / RFU, ZRANB3 / Fold change vs veh, ZRANB3 / RFU, CUL4A / Fold change vs veh, CUL4A / RFU, CCNY / Fold change vs veh, CCNY / RFU, UFL1 / Fold change vs veh, UFL1 / RFU, COG3 / Fold change vs veh, COG3 / RFU, DIAPH2 / Fold change vs veh, DIAPH2 / RFU, SKA2 / Fold change vs veh, SKA2 / RFU, AFF3 / Fold change vs veh, AFF3 / RFU, LMF1 / Fold change vs veh, LMF1 / RFU, IPO11 / Fold change vs veh, IPO11 / RFU, DFFB / Fold change vs veh, DFFB / RFU, FOXP1 / Fold change vs veh, FOXP1 / RFU, CARD8 / Fold change vs veh, CARD8 / RFU, STRN3 / Fold change vs veh, STRN3 / RFU, ADK / Fold change vs veh, ADK / RFU, RASSF2 / Fold change vs veh, RASSF2 / RFU, WIPF1 / Fold change vs veh, WIPF1 / RFU, LARP1B / Fold change vs veh, LARP1B / RFU, RASA1 / Fold change vs veh, RASA1 / RFU, RB1 / Fold change vs veh, RB1 / RFU, PPFIA1 / Fold change vs veh, PPFIA1 / RFU, MAT2A / Fold change vs veh, MAT2A / RFU, CCT5 / Fold change vs veh, CCT5 / RFU, WDR92 / Fold change vs veh, WDR92 / RFU, CUX1 / Fold change vs veh, CUX1 / RFU, TTC7A / Fold change vs veh, TTC7A / RFU, TMEM135 / Fold change vs veh, TMEM135 / RFU, DEPTOR / Fold change vs veh, DEPTOR / RFU, CPM / Fold change vs veh, CPM / RFU, DNAJB6 / Fold change vs veh, DNAJB6 / RFU, CACNA2D3 / Fold change vs veh, CACNA2D3 / RFU, DTX4 / Fold change vs veh, DTX4 / RFU, TFCP2 / Fold change vs veh, TFCP2 / RFU, GMCL1 /// GMCL1P1 / Fold change vs veh, GMCL1 /// GMCL1P1 / RFU, AEBP2 / Fold change vs veh, AEBP2 / RFU, SNHG1 /// SNORD22 /// SNORD25 /// SNORD26 /// SNORD27 /// SNORD28 /// SNORD29 /// SNORD31 / Fold change vs veh, SNHG1 /// SNORD22 /// SNORD25 /// SNORD26 /// SNORD27 /// SNORD28 /// SNORD29 /// SNORD31 / Fold change (Aza/veh), C12orf56 (ProbeSet 11735607_a_at) / Fold change (ACY-1035/veh), C12orf56 (ProbeSet 11735607_a_at) / Fold change (Aza/veh), FGFR1OP (ProbeSet 11751329_s_at) / Fold change (ACY-1035/veh), FGFR1OP (ProbeSet 11751329_s_at) / Fold change (Aza/veh), VPS36 (ProbeSet 11739960_a_at) / Fold change (ACY-1035/veh), VPS36 (ProbeSet 11739960_a_at) / RFU SYPL1 (11715823_x_at) / Fold change /veh SYPL1 (11715823_x_at) / RFU IGFBP7 (11715501_s_at) / Fold change /veh IGFBP7 (11715501_s_at) / RFU REEP3 (11722064_at) / Fold change /veh REEP3 (11722064_at) / RFU IGLL1 (11728026_x_at) / Fold change /veh IGLL1 (11728026_x_at): dose or concentration left out as unconfirmed
# Conditions: ProbeSet 11732433_s_at; LIST B
compound,measurement,value
Nc1ccc(-c2cccs2)cc1NC(=O)c1ccc2c(c1)cc(C1CC1)n2CCN1CCOCC1 [ACY-1035],"Fold change vs veh, GK",1.08
